Assay results: patent publication US11771709B2, “ALK protein degradation agent and anti-tumor application thereof” (ShanghaiTech University, priority 2017, dated 2023)
Like-named read-outs stand apart in the source and are kept apart here.

Experiments:
Type in all cases: cell-based
[1] = tested on: PC9 (EGFR, exon 19 del) cells; test: Growth inhibition IC50 in EGFR mutant lung adenocarcinoma PC9 cells; settings: Homo sapiens, PC-9; PC9 cells, CTB, n ≥ 3; read-out: Half Inhibitory Concentration (IC50) Mean
[2] = tested on: SW48 cell line (EGFR G719S); test: Growth inhibition IC50 in EGFR G719S colorectal cancer cell line SW48; settings: Homo sapiens, CTG, n = 2, read-out: Half Inhibitory Concentration (IC50) Mean
[3] = biological target: T1, ALK protein in SR (NPM-ALK) cells (Homo sapiens, UniProt Q9UM73); test: Western blot of ALK protein level (degradation, DC50), ALK phosphorylation and downstream signaling in SR cells
T1 construct: NPM (nucleophosmin, NPM1, P06748) fusion partner; host or cells: SR (ALCL) cells; the other entry of the earlier key: NPM1 (P06748, Nucleophosmin)

PC9Brc1 cells = test: Colony formation assay in PC9Brc1 cells; settings: PC9 Brc1 cells
Protocol: (§1) Cell were digested to become single cell suspension. Cells were seeded in the intensity of 250 cells/well in 12 well plate. Treated cells at the concentration of 100, 250, 500 nM. Fixed cells 2-3 weeks after and stained cells with crystyl violate.
(§2) ALK PROTAD compound SIAIS1210117 and its negative control epimer SIAIS219050 were used.

SR (NPM-ALK) cells = test: Growth inhibition IC50 in ALCL SR cells (CCK8/WST, 72 hours); settings: 72 h, SR cells, WST; Brigatinib-based PROTAD molecules (Table 3)
MOLM13 cells (FLT3-ITD) = test: Growth inhibition IC50 in FLT3-ITD AML cell line MOLM13; settings: Homo sapiens, MOLM-13; MOLM13 cells, n = 2, reagent CTG; read-out: Half Inhibitory Concentration (IC50) Mean
[4] = tested on: U118MG cells (FIG-ROS1 gene fusion); test: Growth inhibition IC50 in ROS1 mutant glioblastoma cell line U118MG (72 hours); settings: Homo sapiens, U-118-MG, U118MG cells, 72 hours
ALK protein in SR cells = biological target: T2, ALK protein in SR cells (Homo sapiens, UniProt Q9UM73); test: Block of ALK degradation by proteosome inhibitors MG132 and MLN4924 in SR cells
T2 construct: NPM (nucleophosmin, NPM1, P06748) fusion partner; host or cells: SR (ALCL) cells; the other entry of the earlier key: NPM1 (P06748, Nucleophosmin)
From the text: To further validate the degradation effect act through proteosome mediated pathway, we also treated cells with two different proteosome inhibitors MG132 and MLN4924 to block protein degradation (FIG. 16).

PC9 cells = test: Colony formation assay in PC9 cells
Protocol: as §1, §2

[5] = tested on: PC9Brc1 (EGFR, exon 19 del+T790M) cells; test: Growth inhibition IC50 in EGFR mutant lung cancer PC9Brc1 cells; settings: CTB, n ≥ 3, read-out: Half Inhibitory Concentration (IC50) Mean
Ba/F3 (EML4-ALK/L1196M) = biological target: T3, Ba/F3 (EML4-ALK/L1196M) (Homo sapiens, UniProt Q9UM73, L1196M, cells depend on it); test: Growth inhibition IC50 in Ba/F3 cells expressing EML4-ALK L1196M
T3 construct: Q9HC35 (Echinoderm microtubule-associated protein-like 4)

Ba/F3 (EML4-ALK/C1156Y) = biological target: T4, Ba/F3 (EML4-ALK/C1156Y) (Homo sapiens, UniProt Q9UM73, C1156Y, cells depend on it); test: Growth inhibition IC50 in Ba/F3 cells expressing EML4-ALK C1156Y
T4 construct: Q9HC35 (Echinoderm microtubule-associated protein-like 4)

H2228 cells (EML4-ALK) = test: Colony formation assay in H2228 cells; settings: about 2 weeks
Protocol: as §1
In order to see the effect of ALK PROTAD compounds on the colony formation ability of cancer cells, EML4-ALK mutant lung cancer cells H2228 were firstly seeded in 12 well plate at the density of 200 cells per well. Cells were treated with different ALK PROTAD compounds at different concentration for about 2 weeks.

[6] = tested on: NCI-H2228 (EML4-ALK, V3) cells; test: Growth inhibition IC50 in lung adenocarcinoma H2228 cells (WST); settings: Homo sapiens, WST (Table 3)
From the text: Experiments were repeated at least three times.
Besides above, we also tested the dosage-dependent effects on the growth inhibition in H2228 cells. […] (Table 3).

Ba/F3 (EML4-ALK/WT) = biological target: T5, Ba/F3 (EML4-ALK/WT) (Homo sapiens, UniProt Q9UM73); test: Growth inhibition IC50 in Ba/F3 cells expressing EML4-ALK wild type
T5 construct: Q9HC35 (Echinoderm microtubule-associated protein-like 4)

IC50 [1]: 106 nM
IC50 [2]: 1360 nM
DC50 ([3]; ALK protein degradation in SR cells): 0.5 to 10 nM
ALK protein degradation within a time course ([3]; SR cells, 100 nM, 4 hours (SIAIS1210117), up to 24 hours (epimer)): significant ALK protein degradation
IC50 (MOLM13 cells (FLT3-ITD)): 345 nM
IC50 ([4]; n = 2, reagent CTG, read-out: Half Inhibitory Concentration (IC50) Mean): 920 nM
IC50 ([4]; read-out: IC50): ~920 nM
reduction of ALK protein level and its block by MG132 and MLN4924 (ALK protein in SR cells): able to be blocked
IC50 [5]: 460 nM
GI50 (Ba/F3 (EML4-ALK/L1196M)): 170 nM
GI50 (Ba/F3 (EML4-ALK/C1156Y)): 120 nM
IC50 [6]: 30.3 nM
GI50 (Ba/F3 (EML4-ALK/WT)): 123 nM
SMILES: COc1cc(N2CCC(NC(=O)CCCCCCCCCC(=O)N[C@H](C(=O)N3C[C@H](O)C[C@H]3C(=O)NCc3ccc(-c4scnc4C)cc3)C(C)(C)C)CC2)ccc1Nc1ncc(Cl)c(Nc2ccccc2P(C)(C)=O)n1 [SIAIS1210117, N1-(1-(4-((5-chloro-4-((2-(dimethylphosphoryl)phenyl)amino)pyrimidin-2-yl)amino)-3-methoxyphenyl)piperidin-4-yl)-N11-((S)-1-((2S,4R)-4-hydroxy-2-((4-(4-methylthiazol-5-yl)benzyl)carbamoyl)pyrrolidin-1-yl)-3,3-dimethyl-1-oxobutan-2-yl)undecanediamide]
colony formation (PC9Brc1 cells): able to inhibit
IC50 (SR (NPM-ALK) cells): 1.7 ± 1 nM
colony formation (PC9 cells): able to inhibit
colony formation (H2228 cells (EML4-ALK)): dramatically inhibited
